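Results reflect a 48-hour exposure of cells in 96-well plates to compound at five concentrations. GI50 is the concentration that inhibits growth by half.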 The source made the active and inactive calls. No stated cut-off is given here; in the data, active = GI50 up to about 1.1 µM and inactive = higher.
Legend:
Experiment in all cases: NCI anticancer screen, dose series, 48 h
A498 = system: A498
HCC 2998 = system: HCC 2998
HCT-15 = system: HCT-15
HT-29 = system: HT-29
LOX IMVI = system: LOX IMVI
MOLT-4 = system: MOLT-4
NCI-H226 = system: NCI-H226
NCI-H23 = system: NCI-H23
NCI-H522 = system: NCI-H522
SK-MEL-2 = system: SK-MEL-2
SK-MEL-5 = system: SK-MEL-5
SK-OV-3 = system: SK-OV-3
SN12C = system: SN12C
SNB-19 = system: SNB-19
SNB-75 = system: SNB-75
TK-10 = system: TK-10
UO-31 = system: UO-31
HOP-62 = system: HOP-62

SMILES | GI50 (A498) | GI50 (HCC 2998) | GI50 (HCT-15) [µM] | GI50 (HT-29) | GI50 (LOX IMVI) | GI50 (MOLT-4) | GI50 (NCI-H226) | GI50 (NCI-H23) | GI50 (NCI-H522) | GI50 (SK-MEL-2) | GI50 (SK-MEL-5) | GI50 (SK-OV-3) | GI50 (SN12C) | GI50 (SNB-19) | GI50 (SNB-75) | GI50 (TK-10) | GI50 (UO-31) | GI50 (HOP-62)
Nc1ncnc2c1ncn2CC(O)CO (configuration not stated) | > 100 µM (inactive) | 86.7 µM (inactive) | > 100 | > 100 µM (inactive) | > 100 µM (inactive) | > 100 µM (inactive) | > 100 µM (inactive) | > 100 µM (inactive) | > 100 µM (inactive) | > 100 µM (inactive) | > 100 µM (inactive) | > 100 µM (inactive) | > 100 µM (inactive) | > 100 µM (inactive) | > 100 µM (inactive) | > 100 µM (inactive) | > 100 µM (inactive) | 
c1cc2c(cnc3cscc32)s1 | > 100 µM (inactive) | > 100 µM (inactive) | > 100 | > 100 µM (inactive) | > 100 µM (inactive) | > 100 µM (inactive) | > 100 µM (inactive) | > 100 µM (inactive) | > 100 µM (inactive) | > 100 µM (inactive) | > 100 µM (inactive) |  | > 100 µM (inactive) | > 100 µM (inactive) | 57.7 µM (inactive) | > 100 µM (inactive) | > 100 µM (inactive) | > 100 µM (inactive)
N#Cc1cccc(/C=N/C23CC4CC(CC(C4)C2)C3)c1 | > 100 µM (inactive) | > 100 µM (inactive) | > 100 | > 100 µM (inactive) | > 100 µM (inactive) | 99.1 µM (inactive) | > 100 µM (inactive) | > 100 µM (inactive) | > 100 µM (inactive) | > 100 µM (inactive) | > 10 µM (inactive) | > 100 µM (inactive) | > 100 µM (inactive) | > 100 µM (inactive) | > 10 µM (inactive) | > 100 µM (inactive) | > 100 µM (inactive) | > 100 µM (inactive)
CCOC(=O)C1=C(C)N(NC(=O)c2ccccc2)C2(O)CCCC12C(=O)OCC (configuration not stated) | > 100 µM (inactive) | > 100 µM (inactive) | > 100 | > 100 µM (inactive) | > 100 µM (inactive) | > 100 µM (inactive) | > 100 µM (inactive) |  | > 100 µM (inactive) | > 100 µM (inactive) | > 100 µM (inactive) | > 100 µM (inactive) | > 100 µM (inactive) | > 100 µM (inactive) | 40.1 µM (inactive) |  | > 100 µM (inactive) | > 100 µM (inactive)
NC(CCc1ncc(C(=O)O)s1)C(=O)O (configuration not stated) | > 100 µM (inactive) | > 100 µM (inactive) | > 100 | > 100 µM (inactive) | > 100 µM (inactive) | > 100 µM (inactive) | > 100 µM (inactive) | > 100 µM (inactive) | > 100 µM (inactive) |  | > 100 µM (inactive) | > 100 µM (inactive) | > 100 µM (inactive) | > 10 µM (inactive) | > 100 µM (inactive) | > 100 µM (inactive) | > 100 µM (inactive) | 
COc1cc(/C=C2\CCC(C)(CN(C)C)C2=O)cc(OC)c1OC (configuration not stated) | > 100 µM (inactive) | > 100 µM (inactive) | > 100 | > 100 µM (inactive) | > 100 µM (inactive) | > 83.6 µM (inactive) | > 100 µM (inactive) | > 100 µM (inactive) | 50.7 µM (inactive) | > 100 µM (inactive) | > 93.3 µM (inactive) | > 100 µM (inactive) | > 100 µM (inactive) | > 100 µM (inactive) | > 100 µM (inactive) | > 100 µM (inactive) | > 100 µM (inactive) | > 100 µM (inactive)
Cc1ccc(NS(=O)(=O)c2cc(C(C)(C)C)ccc2OCCOCCOCCOc2ccc(C(C)(C)C)cc2S(=O)(=O)Nc2ccc(C)cc2)cc1 | > 100 µM (inactive) | > 100 µM (inactive) | > 100 | > 100 µM (inactive) | > 100 µM (inactive) | > 100 µM (inactive) | > 100 µM (inactive) | > 100 µM (inactive) |  | > 100 µM (inactive) | > 100 µM (inactive) | > 100 µM (inactive) | > 100 µM (inactive) | > 100 µM (inactive) | > 100 µM (inactive) | > 100 µM (inactive) | > 100 µM (inactive) | > 100 µM (inactive)
COC1=CC23C=CC1[C@@H](c1ccccc1)C2=C(C)C(=O)N3C(=O)NC1CCCCC1 (some centres not stated) | 25.6 µM (inactive) | 21.6 µM (inactive) | 5.11 | 19.7 µM (inactive) | 17 µM (inactive) | 18 µM (inactive) | 20.4 µM (inactive) | 18.5 µM (inactive) | 18.9 µM (inactive) | 17.5 µM (inactive) | 14.9 µM (inactive) | 39 µM (inactive) | > 10 µM (inactive) | 31.8 µM (inactive) | 3.78 µM (inactive) | 26.7 µM (inactive) | 20.7 µM (inactive) | 21.5 µM (inactive)

From ChEMBL document CHEMBL1201862, “PubChem BioAssay data set” (2004)
